Assay results reported in patent US7045339B2, “Electron donors for chlorinated solvent source area bioremediation” (SRP Technologies, Inc., priority 2002, dated 2006).

Columns and labels:
Type in all cases: physicochemical
[1] = Emulsion formation of electron donor in water; details: very little mixing, unpublished data
Source text: Oleyl lactyllic acid may be just such an electron donor (confidential proprietary information). It is essentially a combination of vegetable oil and lactic acid that was developed in the food processing industry a few decades ago as an emulsifier. […] Although it has an appearance and viscosity of vegetable oil, its nature as an emulsifier causes it to react very differently with water than pure vegetable oil. When vegetable oil is used in the field as electron donor, an emulsifier such as lecithin must be added to inject it into groundwater (25). The mixture is then mixed to achieve an emulsion of a few tenths of a percent to a few percent oil. The droplet size of the emulsion may be a critical factor in its transportability (26). In order to achieve small, easily transported droplets in the emulsion, intensive mixing is required. […] This observation is consistent with its intended use in food processing. […] While this may be the most promising example on the surface, other potential electron donors will be evaluated under this proposal.

[2] = Interfacial tension between electron donor solutions and nonaqueous phase TCE (pendant drop method)
Source text: (§1) Based on the field results presented in Example 1, laboratory studies were preformed to confirm that the enhanced bioavailability of TCE observed in the field was due to co-solvent or surfactant behavior resulting from the use of high concentrations of sodium lactate. Two fundamental properties used to screen the co-solvent or surfactant properties of a solution are surface tension and interfacial tension. Surface tension measures the force per unit length along the interface between a liquid and air due to its tension. When a co-solvent or surfactant is present in an aqueous liquid at increasing concentrations, the surface tension of that liquid decreases. Interfacial tension is similar to surface tension except that it measures the force per unit length along the interface between two liquid phases arising from the surface free energy. The higher the interfacial tension between two liquids, the less likely one is to dissolve into the other, and the more difficult it is for one to be transported within the other. Thus, perhaps the most significant property of co-solvents and surfactants in the context of chlorinated solvent remediation is that they decrease the interfacial tension between the aqueous phase (groundwater) and the organic nonaqueous phase so that the solubility (or mobility for order-of-magnitude decreases) of the nonaqueous phase is enhanced.
The laboratory study performed to confirm the co-solvent properties of the high concentration electron donor solution measured the surface tension of electron donor solutions at various concentrations. Next, interfacial tensions between the same electron donor solutions and nonaqueous phase TCE were measured. Two types of electron donor solutions were used. The first was different concentrations of sodium lactate, the electron donor used in Example 1. The second was various mixtures of sodium lactate and ethyl lactate. Ethyl lactate was chosen because it is a lactate-based compound that is used in some industries as a solvent. Thus it was believed ethyl lactate might further enhance the co-solvent behavior observed, while still acting as a suitable electron donor for bioremediation. It is believed that mixtures of sodium lactate and ethyl lactate have never before been used for bioremediation. Surface and interfacial tension measurements were made using the pendant drop method (M. J. Rosen, ed., Structure/Performance Relationships in Surfactants, American Chemical Society, Washington D.C. 329 (1984); R. D. Bagnall & P. A. Arundel, The Profile Area of Pendant Drops, 82 J. Phys. Chem. 898 (1978)) coupled with real-time video imaging (M. D. Herd et al., Interfacial Tensions of Microbial Surfactants Determined by Real-Time Video Imaging of Pendant Drops, Proceedings paper number SPE/DOE 24206 513–519, SPE/DOE Eighth Symposium on Enhanced Oil Recovery, Tulsa, Okla. (1992)).
The data points in the figure represent the mean interfacial tension measurement based on at least eight independent measurements. The error bars show one standard deviation. It can be seen that as electron donor concentration increases, interfacial tension generally decreases. While sodium lactate had dramatic effects in the field (see FIG. 7), it appears that the other electron donor solutions tested might increase bioavailability to an even greater extent. […]

[3] = Surface tension of electron donor solutions (pendant drop method); details: FIG. 5; for Change in surface tension: 0% ethyl lactate
Source text: as §1, with “Thus, perhaps the most significant property of co-solvents and surfactants in the context of chlorinated solvent remediation is that they decrease the interfacial tension between the aqueous phase (groundwater) and the organic nonaqueous phase so that the solubility (or mobility for order-of-magnitude decreases) of the nonaqueous phase is enhanced.” left out
The laboratory study performed to confirm the co-solvent properties of the high concentration electron donor solution measured the surface tension of electron donor solutions at various concentrations. Next, interfacial tensions between the same electron donor solutions and nonaqueous phase TCE were measured. […] Surface and interfacial tension measurements were made using the pendant drop method (M. J. Rosen, ed., Structure/Performance Relationships in Surfactants, American Chemical Society, Washington D.C. 329 (1984); R. D. Bagnall & P. A. Arundel, The Profile Area of Pendant Drops, 82 J. Phys. Chem. 898 (1978)) coupled with real-time video imaging (M. D. Herd et al., Interfacial Tensions of Microbial Surfactants Determined by Real-Time Video Imaging of Pendant Drops, Proceedings paper number SPE/DOE 24206 513–519, SPE/DOE Eighth Symposium on Enhanced Oil Recovery, Tulsa, Okla. (1992)).

Compound: oleyl lactyllic acid
- Emulsion formed in water [1]: forms a stable microemulsion

Compound: CC(O)C(=O)[O-].[Na+] (stereo not drawn) [sodium lactate]
- Decrease of interfacial tension between nonaqueous TCE and the electron donor solution ([2]; high concentrations of sodium lactate): ≤ 47%
- Interfacial tension as percent of the value at 0.1% sodium lactate ([2]; sodium lactate 30%, 0% ethyl lactate, FIG. 6): 47%
- Decrease of interfacial tension ([2]; sodium lactate increased from 0.1 to 3%, 0% ethyl lactate, FIG. 6): about 26%
- Change in surface tension ([3]; sodium lactate 0.01 to 7%): almost no change
- Change in surface tension ([3]; sodium lactate 30 and 60%): dramatic decrease

Compound: CCOC(=O)C(C)O (stereo not drawn) [ethyl lactate]
- Tension compared with 30% sodium lactate solution with no ethyl lactate ([2]; 10% ethyl lactate mixture with sodium lactate): lower surface tensions than the 30% sodium lactate solution
- Dependence of interfacial tension on sodium lactate concentration ([2]; ethyl lactate / sodium lactate mixtures, FIG. 6): relatively insensitive to sodium lactate concentration
- Effect on the solution's surface tension ([3]; 1% and 10% ethyl lactate added to sodium lactate solutions): pronounced effect
